From PubChem BioAssay (NCI)
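Method: 48-hour compound exposure of cells in 96-well plates, five concentrations, linear interpolation of endpoints. The concentration for 50% growth inhibition is given as GI50. At the TGI there is no net growth.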

Columns and labels:
Assay in all cases: NCI anticancer screen, dose series, 48 h
786-0 renal = system: 786-0 renal
A498 renal = system: A498 renal
A549 NSCLC = system: A549 NSCLC
ACHN renal = system: ACHN renal
BT-549 breast = system: BT-549 breast
CAKI-1 renal = system: CAKI-1 renal
CCRF-CEM leukemia = system: CCRF-CEM leukemia
COLO 205 colon = system: COLO 205 colon
DU-145 prostate = system: DU-145 prostate
HCC-2998 colon = system: HCC-2998 colon
HCT-116 colon = system: HCT-116 colon
HCT-15 colon = system: HCT-15 colon
HL-60(TB) leukemia = system: HL-60(TB) leukemia
HOP-62 NSCLC = system: HOP-62 NSCLC
HOP-92 NSCLC = system: HOP-92 NSCLC
HS 578T breast = system: HS 578T breast
HT29 colon = system: HT29 colon
IGROV1 ovarian = system: IGROV1 ovarian
K-562 leukemia = system: K-562 leukemia
KM12 colon = system: KM12 colon
LOX IMVI melanoma = system: LOX IMVI melanoma
M14 melanoma = system: M14 melanoma
MCF7 breast = system: MCF7 breast
MDA-MB-231 breast = system: MDA-MB-231 breast
MOLT-4 leukemia = system: MOLT-4 leukemia
NCI-H226 lung = system: NCI-H226 lung
NCI-H23 lung = system: NCI-H23 lung
NCI-H460 lung = system: NCI-H460 lung
NCI-H522 lung = system: NCI-H522 lung
NCI/ADR-RES ovarian = system: NCI/ADR-RES ovarian
OVCAR-3 ovarian = system: OVCAR-3 ovarian
OVCAR-4 ovarian = system: OVCAR-4 ovarian
OVCAR-5 ovarian = system: OVCAR-5 ovarian
OVCAR-8 ovarian = system: OVCAR-8 ovarian
PC-3 prostate = system: PC-3 prostate
RPMI-8226 leukemia = system: RPMI-8226 leukemia
RXF 393 renal = system: RXF 393 renal
SF-268 CNS = system: SF-268 CNS
SF-295 CNS = system: SF-295 CNS
SF-539 CNS = system: SF-539 CNS
SK-MEL-2 melanoma = system: SK-MEL-2 melanoma
SK-MEL-28 melanoma = system: SK-MEL-28 melanoma
SK-MEL-5 melanoma = system: SK-MEL-5 melanoma
SK-OV-3 ovarian = system: SK-OV-3 ovarian
SN12C renal = system: SN12C renal
SNB-19 CNS = system: SNB-19 CNS
SNB-75 CNS = system: SNB-75 CNS
SR leukemia = system: SR leukemia
SW-620 colon = system: SW-620 colon
T-47D breast = system: T-47D breast
TK-10 renal = system: TK-10 renal
U251 CNS = system: U251 CNS
UACC-257 melanoma = system: UACC-257 melanoma
UACC-62 melanoma = system: UACC-62 melanoma
UO-31 renal = system: UO-31 renal

Structure (SMILES): COc1cccc(NC(=O)c2sc3nc4c(cc3c2N)C(O)CCC4)c1 (stereo not given)
- GI50 (786-0 renal): 503 nM
- TGI (786-0 renal): > 100000 nM
- GI50 (A498 renal): 112 nM
- TGI (A498 renal): 4000 nM
- GI50 (A549 NSCLC): 287 nM
- TGI (A549 NSCLC): > 100000 nM
- GI50 (ACHN renal): 956 nM
- TGI (ACHN renal): > 100000 nM
- GI50 (BT-549 breast): 274 nM
- TGI (BT-549 breast): > 100000 nM
- GI50 (CAKI-1 renal): 538 nM
- TGI (CAKI-1 renal): > 100000 nM
- GI50 (CCRF-CEM leukemia): 220 nM
- TGI (CCRF-CEM leukemia): > 100000 nM
- GI50 (COLO 205 colon): 226 nM
- TGI (COLO 205 colon): 870 nM
- GI50 (DU-145 prostate): 292 nM
- TGI (DU-145 prostate): > 29200 nM
- GI50 (HCC-2998 colon): 347 nM
- TGI (HCC-2998 colon): > 100000 nM
- GI50 (HCT-116 colon): 117 nM
- TGI (HCT-116 colon): > 100000 nM
- GI50 (HCT-15 colon): 85.6 nM
- TGI (HCT-15 colon): > 100000 nM
- GI50 (HL-60(TB) leukemia): 53.4 nM
- TGI (HL-60(TB) leukemia): 534 nM
- GI50 (HOP-62 NSCLC): 260 nM
- TGI (HOP-62 NSCLC): 64600 nM
- GI50 (HOP-92 NSCLC): 169 nM
- TGI (HOP-92 NSCLC): 23000 nM
- GI50 (HS 578T breast): 325 nM
- TGI (HS 578T breast): > 49900 nM
- GI50 (HT29 colon): 133 nM
- TGI (HT29 colon): > 100000 nM
- GI50 (IGROV1 ovarian): 383 nM
- TGI (IGROV1 ovarian): > 100000 nM
- GI50 (K-562 leukemia): 40.6 nM
- TGI (K-562 leukemia): > 100000 nM
- GI50 (KM12 colon): 111 nM
- TGI (KM12 colon): > 100000 nM
- GI50 (LOX IMVI melanoma): 766 nM
- TGI (LOX IMVI melanoma): > 100000 nM
- GI50 (M14 melanoma): 134 nM
- TGI (M14 melanoma): > 100000 nM
- GI50 (MCF7 breast): 52.3 nM
- TGI (MCF7 breast): > 100000 nM
- GI50 (MDA-MB-231 breast): 448 nM
- TGI (MDA-MB-231 breast): > 100000 nM
- GI50 (MOLT-4 leukemia): 294 nM
- TGI (MOLT-4 leukemia): > 100000 nM
- GI50 (NCI-H226 lung): 669 nM
- TGI (NCI-H226 lung): > 100000 nM
- GI50 (NCI-H23 lung): 442 nM
- TGI (NCI-H23 lung): > 100000 nM
- GI50 (NCI-H460 lung): 324 nM
- TGI (NCI-H460 lung): > 100000 nM
- GI50 (NCI-H522 lung): 105 nM
- TGI (NCI-H522 lung): 2570 nM
- GI50 (NCI/ADR-RES ovarian): 206 nM
- TGI (NCI/ADR-RES ovarian): > 100000 nM
- GI50 (OVCAR-3 ovarian): 106 nM
- TGI (OVCAR-3 ovarian): 515 nM
- GI50 (OVCAR-4 ovarian): 775 nM
- TGI (OVCAR-4 ovarian): > 100000 nM
- GI50 (OVCAR-5 ovarian): 521 nM
- TGI (OVCAR-5 ovarian): > 100000 nM
- GI50 (OVCAR-8 ovarian): 377 nM
- TGI (OVCAR-8 ovarian): > 100000 nM
- GI50 (PC-3 prostate): 230 nM
- TGI (PC-3 prostate): > 100000 nM
- GI50 (RPMI-8226 leukemia): 333 nM
- TGI (RPMI-8226 leukemia): > 100000 nM
- GI50 (RXF 393 renal): 278 nM
- TGI (RXF 393 renal): 37700 nM
- GI50 (SF-268 CNS): 496 nM
- TGI (SF-268 CNS): > 55000 nM
- GI50 (SF-295 CNS): 157 nM
- TGI (SF-295 CNS): > 92200 nM
- GI50 (SF-539 CNS): 140 nM
- TGI (SF-539 CNS): 606 nM
- GI50 (SK-MEL-2 melanoma): 249 nM
- TGI (SK-MEL-2 melanoma): > 100000 nM
- GI50 (SK-MEL-28 melanoma): 787 nM
- TGI (SK-MEL-28 melanoma): > 100000 nM
- GI50 (SK-MEL-5 melanoma): 311 nM
- TGI (SK-MEL-5 melanoma): 8290 nM
- GI50 (SK-OV-3 ovarian): 317 nM
- TGI (SK-OV-3 ovarian): > 71300 nM
- GI50 (SN12C renal): 562 nM
- TGI (SN12C renal): > 100000 nM
- GI50 (SNB-19 CNS): 2120 nM
- TGI (SNB-19 CNS): > 93200 nM
- GI50 (SNB-75 CNS): 170 nM
- TGI (SNB-75 CNS): 24700 nM
- GI50 (SR leukemia): 43.2 nM
- TGI (SR leukemia): > 100000 nM
- GI50 (SW-620 colon): 107 nM
- TGI (SW-620 colon): > 100000 nM
- GI50 (T-47D breast): 727 nM
- TGI (T-47D breast): > 100000 nM
- GI50 (TK-10 renal): 46800 nM
- TGI (TK-10 renal): > 100000 nM
- GI50 (U251 CNS): 244 nM
- TGI (U251 CNS): > 51600 nM
- GI50 (UACC-257 melanoma): 28200 nM
- TGI (UACC-257 melanoma): > 100000 nM
- GI50 (UACC-62 melanoma): 150 nM
- TGI (UACC-62 melanoma): > 100000 nM
- GI50 (UO-31 renal): 607 nM
- TGI (UO-31 renal): > 100000 nM
